“Also recorded” adds a separate entry of the source.
Key:
GSK3-alpha = GSK3-alpha (Homo sapiens, UniProt P49840); conditions: cited from earlier work
GSK3-beta = GSK3-beta (Homo sapiens, UniProt P49841); conditions: cited from earlier work
[1] = tested on: Dermal Papilla (DP) cells; experiment: Stem Cell Proliferation Assay using dermal papilla; type: cell-based; conditions: Purmorphamine 1 μM; for Alkaline Phosphatase (Alp) colonies: Example 4, FIG. 4
Experimental: Dermal Papilla (DP) proliferation cell culture assay refers to a cell culture method to quantify the number of Dermal Papilla (DP) spheroids, size of DP spheroids, or number of DP cells in cell culture, which is measured at the end of the assay. DP cells refer to cells that express Alkaline Phosphatase (AP), and/or Versican, and/or Vimentin, and/or Sox2, and/or CD133.
The protocol for the Stem Cell Proliferation Assay using dermal papilla is as follows:
Basal media: DMEM/high-glucose medium and F12, supplemented with N2 1×, B27 1×, Streptomycin sulfate (100 μg/ml), Amphotericin B ([…]), and 1 mM Hepes.
Microdissection is used to remove intact hair follicles from a specimen. Intact follicles are incubated for 40 min at 37° C. in TrypLE™ (Thermo Fisher Scientific) with 1 mg/ml collagenase type 1 (sterilized using 0.2 μm syringe filter). The treated follicles are then triturated >30× using a 200 μl pipette tip. The volume is adjusted up to 1 ml with 1×PBS. The treated follicles are then passed through a 40 μm cell strainer to obtain a single cell suspension.
Twenty μl are applied to a cell counter to determine the number of cells per 1 ml. The remaining cell suspension is spun down at 1,000×g for 5 min at 4° C.
Standard media is prepared supplemented with growth factors (IGF, EGF, and FGF2 at 50 ng/ml). The cells are suspended in standard media with growth factors at 120,000 cells/ml and 250 μl (30,000 cells) are applied to each well of a 24-well plate (Corning Costar, 3534).
Each treatment condition is prepared at 2× concentration, enough for 250 μl/well for a final dilution of 1× in 500 μl. The final DMSO concentration is at about 0.2% for all.
250 μl 2× treatment media is applied to each well to have a final media volume per well of 500 μl. The final treatment concentration per well is 1×. The final cell density is 30,000 cells per well. […]
EVOS® transmitted light images are taken at 0, 5, 7, and 10 days in culture.
Spheroids are collected at 10 days in culture for immunoblotting, qPCR, or flow cytometry. Alternatively, spheroids may be applied to glass bottom dishes coated with poly-1-lysine for alkaline phosphatase (AP) staining, 5-ethynyl-2′-deoxyuridine (EdU) staining, and/or immunofluorescence for DP markers (e.g. Vimentin, Sox2, Versican, CD133) for microscopy.
Alternatively, cells or colonies may be assessed using microscopy to compare DP properties across conditions.

[2] = Example 1, FIG. 1, 8 days in culture, CHIR99021 4 μM, alone or combined
[3] = Example 2, FIG. 2, 10 days in culture, Compound I-7 10 nM, alone or combined
[4] = 10 days in culture, Compound I-7 10 nM, alone or combined
[5] = Example 3, FIG. 3, SAG 3 nM, SAG HCl 500 nM, alone or with Compound I-7 10 nM

GSK3-alpha, sequence (P49840 whole entry, species assumed): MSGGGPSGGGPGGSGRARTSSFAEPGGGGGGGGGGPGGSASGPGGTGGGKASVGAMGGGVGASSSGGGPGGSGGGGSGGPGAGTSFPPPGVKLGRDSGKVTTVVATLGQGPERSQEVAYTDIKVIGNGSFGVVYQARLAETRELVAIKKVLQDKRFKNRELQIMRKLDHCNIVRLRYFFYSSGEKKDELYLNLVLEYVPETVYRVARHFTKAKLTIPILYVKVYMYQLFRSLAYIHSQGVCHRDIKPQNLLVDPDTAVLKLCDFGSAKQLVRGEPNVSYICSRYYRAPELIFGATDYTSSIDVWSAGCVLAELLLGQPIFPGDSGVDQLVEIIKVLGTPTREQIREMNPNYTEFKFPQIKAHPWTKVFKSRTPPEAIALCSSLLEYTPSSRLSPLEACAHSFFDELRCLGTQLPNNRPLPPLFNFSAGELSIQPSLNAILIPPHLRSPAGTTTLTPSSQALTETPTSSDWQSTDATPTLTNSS
GSK3-beta, sequence (P49841 whole entry, species assumed): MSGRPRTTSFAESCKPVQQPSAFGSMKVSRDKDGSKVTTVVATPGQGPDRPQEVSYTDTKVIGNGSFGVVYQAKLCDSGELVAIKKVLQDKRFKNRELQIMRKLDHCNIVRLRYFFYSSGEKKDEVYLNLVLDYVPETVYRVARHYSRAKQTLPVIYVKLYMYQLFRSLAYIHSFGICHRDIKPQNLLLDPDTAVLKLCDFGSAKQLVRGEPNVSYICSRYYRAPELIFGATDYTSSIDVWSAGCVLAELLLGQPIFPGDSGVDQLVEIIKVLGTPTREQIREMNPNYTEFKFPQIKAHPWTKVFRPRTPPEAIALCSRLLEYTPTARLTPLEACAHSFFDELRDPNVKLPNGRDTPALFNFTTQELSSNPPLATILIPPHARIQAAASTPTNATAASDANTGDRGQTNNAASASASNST

SMILES: N#Cc1ccc2[nH]c(O)c(-c3ccc(CN4CCOCC4)cn3)c2c1 [AZD1080]
- Potency in nM GSK3-alpha (GSK3-alpha): 6.9 nM

SMILES: COc1ccccc1[C@@H]1C2=C(CC(C)(C)CC2=O)Nc2n[nH]c(C(F)(F)F)c21 [BRD1172]
- Potency in nM GSK3-beta (GSK3-beta): 10 nM
- Potency in nM GSK3-alpha (GSK3-alpha): 3 nM

SMILES: CC1(C)CC(=O)C2=C(C1)Nc1n[nH]c(C(F)(F)F)c1[C@]2(C)c1ccccc1 [BRD1652]
- Potency in nM GSK3-beta (GSK3-beta): 4 nM
- Potency in nM GSK3-alpha (GSK3-alpha): 0.4 nM

SMILES: Cc1c[nH]c(-c2cnc(NCCNc3ccc(C#N)cn3)nc2-c2ccc(Cl)cc2Cl)n1 [CHIR99021]
- DP colonies by light microscopy [1, 2]: more abundant colonies than FIG. 1A; also recorded: more abundant colonies than DP cells treated in control conditions

SMILES: O=C1NC(=O)C(c2cnc3ccccn23)=C1c1cn2c3c(cc(F)cc13)CN(C(=O)N1CCC(F)(F)CC1)CC2 [Compound I-7, 3-(2-(4,4-difluoropiperidine-1-carbonyl)-9-fluoro-1,2,3,4-tetrahydro-[1,4]diazepino[6,7,1-hi]indol-7-yl)-4-(imidazo[1,2-a]pyridin-3-yl)-1H-pyrrole-2,5-dione]
- DP colonies by light microscopy [1, 3]: more abundant colonies than FIG. 2A; also recorded: more abundant colonies than DP cells treated in control conditions
- Alkaline Phosphatase (Alp) colonies [1, 4]: small Alp colonies; also recorded: few Alp colonies

SMILES: Cc1ccc(C(=O)Nc2c[nH]nc2C(=O)NCCCOC(C)C)cn1 [GSK-3b XXII]
- Potency in nM GSK3-alpha (GSK3-alpha): 2.3 nM

SMILES: c1ccc2c(Oc3nc(Nc4ccc(N5CCOCC5)cc4)c4ncn(C5CCCCC5)c4n3)cccc2c1 [Purmorphamine]
- DP colonies by light microscopy [1, 2]: slightly larger and more abundant colonies than FIG. 1A; also recorded: slightly larger and more abundant colonies than DP cells treated in control conditions
- DP colonies by light microscopy [1, 3]: slightly larger and more abundant colonies than FIG. 2A; also recorded: slightly larger and more abundant colonies than DP cells treated in control conditions
- DP colonies by light microscopy [1, 5]: form colonies
- Alkaline Phosphatase (Alp) colonies [1, 4]: few Alp colonies

SMILES: CNC1CCC(N(Cc2cccc(-c3ccncc3)c2)C(=O)c2sc3ccccc3c2Cl)CC1 (centres unmarked) [SAG]
- DP colonies by light microscopy [1, 5]: form colonies
